We go through 5 compounds from ChEMBL document CHEMBL3751745, “Aryl-imidazothiadiazole analogues as microtubule disrupting agents” (Medchemcomm, 2015).

Assay [1] can be described thus: Cytotoxicity against human MIAPaCa2 cells assessed as cell viability after 48 hrs by SRB assay. It is filed as functional, cell-based. The note with it: MIA PaCa-2, 48 h. For orientation: In SRB staining, fixed cells bind dye roughly in proportion to their protein.
A further assay deals with MCF7. Description: Cytotoxicity against human MCF7 cells assessed as cell viability after 48 hrs by SRB assay. In kind it is functional, cell-based. The note with it: MCF7, 48 h.
Assay [2] concerns HeLa. The assay can be described thus: Cytotoxicity against human HeLa cells assessed as cell viability after 48 hrs by SRB assay. It is filed as functional, cell-based.
Assay [3] in a line: Cytotoxicity against human DU145 cells assessed as cell viability after 48 hrs by SRB assay. It is filed as functional, cell-based. The note with it: DU-145, 48 h.
The test system of assay [4] is HeLa. Description: Induction of cell cycle arrest in human HeLa cells assessed as cell arrest at accumulation at G2/M phase at 5 uM after 24 hrs by flow cytometric analysis (reference value: 25.49%). It is filed as functional.
The test system of assay [5] is HeLa. The assay can be described thus: Disruption of microtubule organization in human HeLa cells at 5 uM after 24 hrs by DAPI-FITC staining based confocal microscopic analysis. In kind it is functional, cell-based.
In assay [6] the test system is HeLa. The assay can be described thus: Induction of apoptosis in human HeLa cells assessed as activation of caspase-3 activity at 2 uM after 24 hrs by ELISA. In kind it is functional. (An ELISA detects its analyte on a solid surface through an enzyme-linked reagent.)
Assay [7] deals with HeLa. Description: Induction of apoptosis in human HeLa cells assessed as activation of caspase-3 activity at 4 uM after 24 hrs by ELISA. It is filed as functional.
Assay [8] concerns HeLa. Description: Induction of apoptosis in human HeLa cells assessed as induction of cyclin B1 levels at 5 uM after 24 hrs by Western blot analysis. It is filed as functional, cell-based.
For assay [9], the system named is HeLa. Description: Induction of apoptosis in human HeLa cells assessed as activation of cyclin B1 mRNA levels at 5 uM after 24 hrs by semi-quantitative RT-PCR. It is filed as functional, cell-based.
In another assay the target is Tubulin (Sus scrofa) (UniProt P02554+P02550). Description: Inhibition of porcine brain tubulin polymerization at 5 uM by fluorescence based assay.
Assay [10] concerns HeLa. The assay can be described thus: Induction of cell cycle arrest in human HeLa cells assessed as cell arrest at accumulation at G2/M phase at 2 uM after 24 hrs by flow cytometric analysis (reference value: 25.49%). It is filed as functional. A general note: In flow cytometry, cells or beads pass a laser one at a time.
In a further assay the target is Tubulin (Homo sapiens) (UniProt P68371+Q9H4B7+P0DPH7+P68366+Q13509+Q71U36+P04350+Q3ZCM7+P07437+P68363+Q9BQE3+Q6PEY2+Q13885+Q9BVA1+Q9BUF5). Description: Inhibition of colchicine binding to tubulin (unknown origin) assessed as decrease in tubulin-colchicine complex at 0 to 15 uM incubated for 1 hr by fluorescence based colchicine competitive binding assay. It is filed as protein-complex assay.

For the next assay, the target named is Tubulin (Sus scrofa, UniProt P02554+P02550). The assay can be described thus: Inhibition of porcine brain tubulin polymerization by fluorescence based assay.

Activity calls are given as the source filed them. No cut-off for these calls is given here.

Sequence of Tubulin (Sus scrofa) (P02550 whole entry, looked up): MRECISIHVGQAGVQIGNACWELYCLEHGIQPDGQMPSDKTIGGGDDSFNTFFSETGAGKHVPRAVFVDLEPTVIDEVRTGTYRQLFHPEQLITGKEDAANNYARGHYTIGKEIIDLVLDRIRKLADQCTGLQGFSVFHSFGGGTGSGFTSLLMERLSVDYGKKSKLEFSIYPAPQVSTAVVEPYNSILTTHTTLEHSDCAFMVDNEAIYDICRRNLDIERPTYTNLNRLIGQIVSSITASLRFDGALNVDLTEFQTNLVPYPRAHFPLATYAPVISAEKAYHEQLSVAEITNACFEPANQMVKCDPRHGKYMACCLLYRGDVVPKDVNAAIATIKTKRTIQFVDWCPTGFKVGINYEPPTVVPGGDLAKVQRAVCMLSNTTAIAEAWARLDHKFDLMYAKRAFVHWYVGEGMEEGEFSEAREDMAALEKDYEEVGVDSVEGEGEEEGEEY
Sequence of Tubulin (Sus scrofa) (P02554 whole entry, looked up): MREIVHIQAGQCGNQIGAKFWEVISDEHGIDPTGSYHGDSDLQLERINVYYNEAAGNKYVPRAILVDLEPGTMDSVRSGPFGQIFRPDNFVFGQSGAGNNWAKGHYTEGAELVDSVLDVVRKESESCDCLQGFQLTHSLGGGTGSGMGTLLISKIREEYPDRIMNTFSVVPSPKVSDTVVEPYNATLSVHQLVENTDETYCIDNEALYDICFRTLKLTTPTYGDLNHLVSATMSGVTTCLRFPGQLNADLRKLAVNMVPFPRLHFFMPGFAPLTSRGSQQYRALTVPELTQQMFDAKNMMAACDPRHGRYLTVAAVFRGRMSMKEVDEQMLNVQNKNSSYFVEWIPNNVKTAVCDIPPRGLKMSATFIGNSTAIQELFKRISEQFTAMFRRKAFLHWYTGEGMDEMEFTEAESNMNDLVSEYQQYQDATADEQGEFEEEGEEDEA

By IC50 is commonly meant the point on the concentration scale where inhibition reaches its midpoint. Consider `COc1ccc(/C=C\c2cc(OC)c(OC)c(OC)c2)cc1O` [COMBRETASTATIN A4], for which the IC50 was found to be 0.087 µM in [1], 0.134 µM with MCF7, 0.15 µM with HeLa [2] and 0.12 µM in [3]. In addition, the Activity in the assay with HeLa [4] amounted to 83.95%. Besides, the result with HeLa [5], with HeLa [8] and in the assay on HeLa [9] was Active. The “fold change (FC)” value in the assay on HeLa [6] and in the assay on HeLa [7] was 2.5 each time.

One may read the inhibition as the change of the read-out against control, counted positive when it falls. As to `CCc1nn2c(-c3ccc4ccccc4c3)c(-c3cc(OC)c(OC)c(OC)c3)nc2s1`, the IC50 in assay [1] was 1.2 µM; with MCF7, 2.4 µM; with HeLa [2], 1.6 µM; in [3] it was 4.49 µM; on Tubulin, 1.7 µM. For the same compound, the inhibition at Tubulin (Sus scrofa) was 75.1%; on Tubulin (Homo sapiens), “Dose-dependent effect”. In addition, the Activity in the assay with HeLa [4] was found to be 78.3%; in the assay with HeLa [10] it was 64.84%. Moreover, the outcome with HeLa [5], in the assay on HeLa [8] and with HeLa [9] was Active. The “fold change (FC)” value with HeLa [6] and in the assay with HeLa [7] was 2.5 each time.

Take `CC(=O)O[C@H]1C(=O)[C@@]2(C)[C@H]([C@H](OC(=O)c3ccccc3)[C@]3(O)C[C@H](OC(=O)[C@H](O)[C@@H](NC(=O)c4ccccc4)c4ccccc4)C(C)=C1C3(C)C)[C@]1(OC(C)=O)CO[C@@H]1C[C@@H]2O`: at Tubulin (Homo sapiens), the inhibition result was “inactive”. Besides, the outcome in the assay with HeLa [8] and in the assay on HeLa [9] was Active.

With `CCc1nn2c(-c3ccc(N(C)C)cc3)c(-c3cc(OC)c(OC)c(OC)c3)nc2s1`, the IC50 in assay [1] turned out to be 2.5 µM; with MCF7, 1.9 µM; in the assay on HeLa [2], 2.2 µM; in assay [3], 2.75 µM; at Tubulin, 3.1 µM. The compound further showed an inhibition at Tubulin (Sus scrofa) of 66.8%. In addition, the Activity in the assay on HeLa [4] amounted to 67.53%; with HeLa [10], 55.3%. Besides, the result in the assay with HeLa [5], in the assay on HeLa [8] and with HeLa [9] was Active. Also, the “fold change (FC)” value with HeLa [6] and with HeLa [7] was 2.5 throughout.

For the compound `COc1cc(-c2nc3sc(C4CC4)nn3c2-c2ccc(N(C)C)cc2)cc(OC)c1OC`, the IC50 in [1] is 2.5 µM; with MCF7, 3.4 µM; with HeLa [2], 2.9 µM; in assay [3] it was 3.45 µM; at Tubulin, 3.8 µM. Moreover, at Tubulin (Sus scrofa), the inhibition came to 60.9%. The Activity is 72.5% in the assay with HeLa [4] and 57.66% with HeLa [10]. The outcome in the assay with HeLa [5], in the assay with HeLa [8] and with HeLa [9] was Active. The “fold change (FC)” value in the assay on HeLa [6] and with HeLa [7] was 2.5 each time.
